PubChem BioAssay AID304 (DTP/NCI, 2004)
Where “and” joins values, the source holds several entries; their conditions need not be identical. Equal entries are not always repeated. Toxic doses and inconclusive results are not listed. Starred links: 1 amine or outer side, 2 acyl side, 3 side chain; linkers in the order of their positions; H or OH if unused. Positions of bridges follow the written chain, without caps; N, C: chain ends. Non-standard residues stand in square brackets, D forms with d. Residues, ends and D or L forms follow the SMILES beside them. Chains are numbered I, II in the order given. Actinocin(9to1) = Cc1c2oc3c(C)ccc(C(=O)[*:1])c3nc-2c(C(=O)[*:2])c(N)c1=O; aThr = C[C@H](O)[C@H](N)C(=O)O; NMeV = CN[C@H](C(=O)O)C(C)C; Sar = CNCC(=O)O

Test system: Lymphosarcoma Mecca ip in C3AKF1 mice, survival T/C%
Assay: NCI In Vivo Anticancer Drug Screen. Data for tumor model Lymphosarcoma Mecca (intraperitoneal) in C3AKF1 (CHKRF1) mice
Details: endpoint: survival time, mean or median, schedule: Q01DX010 (ip), higher = longer survival
Experimental: The antitumor activity of compounds was measured in mice bearing transplantable tumors. Survival or tumor size were measured and the results are expressed as the measurement made in the treated group (T) divided by the measurement made in the vehicle treated control group (C). The tumor model used in this assay is Lymphosarcoma Mecca (intraperitoneal) in C3AKF1 (CHKRF1) mice

[1] = dose: 50.0 mg/kg/injection, vehicle: saline
[2] = dose: 100.0 mg/kg/injection, vehicle: saline
[3] = dose: 200.0 mg/kg/injection, vehicle: saline
[4] = dose: 400.0 mg/kg/injection, vehicle: saline
[5] = dose: 12.5 mg/kg/injection, vehicle: saline
[6] = dose: 25.0 mg/kg/injection, vehicle: saline
[7] = dose: 5.0 mg/kg/injection, vehicle: saline
[8] = dose: 10.0 mg/kg/injection, vehicle: saline
[9] = dose: 20.0 mg/kg/injection, vehicle: saline
[10] = dose: 40.0 mg/kg/injection, vehicle: saline

Structure (SMILES): CCn1cnc2c(=S)nc[nH]c21
- T/C (dose: 15.6 mg/kg/injection, vehicle: saline): 100 % of control
- T/C (dose: 31.3 mg/kg/injection, vehicle: saline): 100 % of control
- T/C (dose: 62.5 mg/kg/injection, vehicle: saline): 90 % of control
- T/C (dose: 125.0 mg/kg/injection, vehicle: saline): 100 % of control

Structure (SMILES): Nc1nc(=O)n(C2CC(O)C(CO)O2)cc1Br (stereo not drawn)
- T/C [1]: 100 % of control
- T/C [2]: 100 % of control and 105 % of control
- T/C [3]: 100 % of control and 111 % of control
- T/C [4]: 90 % of control and 94 % of control
- T/C (dose: 800.0 mg/kg/injection, vehicle: saline): 88 % of control

Structure (SMILES): CCN(CC)CCCC(C)Nc1c2ccc(Cl)cc2nc2ccc(OC)cc12 (stereo not drawn)
- T/C [5]: 100 % of control
- T/C [6]: 100 % of control and 111 % of control
- T/C [1]: 90 % of control and 105 % of control
- T/C [2]: 95 % of control and 111 % of control

Structure (SMILES): CN(C)c1ccc(/C=C/c2ccnc3ccccc23)cc1
- T/C [7]: 100 % of control and 111 % of control
- T/C [8]: 94 % of control
- T/C [9]: 94 % of control and 100 % of control
- T/C [10]: 94 % of control

Structure (SMILES): Oc1cc(CN(CCCl)CCCl)c(O)cc1CN(CCCl)CCCl
- T/C (dose: 0.63 mg/kg/injection, vehicle: saline): 120 % of control

Structure (SMILES): N#[N+]c1cnc([O-])[nH]c1=O
- T/C [7]: 157 % of control

Structure (SMILES): O=C(Nc1ccc(C2=NCCN2)cc1)c1cccc(C(=O)Nc2ccc(C3=NCCN3)cc2)c1
- T/C (dose: 8.0 mg/kg/injection, vehicle: saline): 113 % of control
- T/C (dose: 16.0 mg/kg/injection, vehicle: saline): 110 % of control and 205 % of control
- T/C (dose: 64.0 mg/kg/injection, vehicle: saline): 175 % of control

Structure (SMILES): CS(=O)(=O)OCCCCOS(C)(=O)=O
- T/C (dose: 6.25 mg/kg/injection, vehicle: saline): 86 % of control and 100 % of control
- T/C [5]: 100 % of control
- T/C [6]: 90 % of control
- T/C [1]: 95 % of control

Structure (SMILES): NC(=O)N(CCCl)N=O
- T/C (dose: 0.5 mg/kg/injection, vehicle: saline): 300 % of control
- T/C (dose: 1.0 mg/kg/injection, vehicle: saline): 158 % of control and 230 % of control
- T/C (dose: 4.0 mg/kg/injection, vehicle: saline): 110 % of control

Structure (SMILES): Cn1c(N)nc2nc[nH]c2c1=S
- T/C [8]: 100 % of control and 105 % of control
- T/C [9]: 100 % of control and 105 % of control
- T/C [10]: 110 % of control
- T/C (dose: 80.0 mg/kg/injection, vehicle: saline): 100 % of control

Structure (SMILES): CN(C)c1nc(N(C)C)nc(N(C)C)n1
- T/C (dose: 18.8 mg/kg/injection, vehicle: saline): 105 % of control
- T/C (dose: 37.5 mg/kg/injection, vehicle: saline): 100 % of control
- T/C (dose: 75.0 mg/kg/injection, vehicle: saline): 100 % of control and 111 % of control
- T/C (dose: 150.0 mg/kg/injection, vehicle: saline): 105 % of control and 111 % of control

Structure (SMILES): Cc1c2oc3c(C)ccc(C(=O)N[C@@H]4C(=O)N[C@H](C(C)C)C(=O)N5CCC[C@H]5C(=O)N(C)CC(=O)N(C)[C@@H](C(C)C)C(=O)O[C@H]4C)c3nc-2c(C(=O)N[C@@H]2C(=O)N[C@H](C(C)C)C(=O)N3CCC[C@H]3C(=O)N(C)CC(=O)N(C)[C@@H](C(C)C)C(=O)O[C@H]2C)c(N)c1=O (I: [aThr][dV]P[Sar][NMeV] / II: [aThr][dV]P[Sar][NMeV]; ester I:1-I:C, II:1-II:C; linker I:N-II:N via Actinocin(9to1))
- T/C (dose: 13.0 micrograms/kg/injection, vehicle: acid diluted with saline): 183 % of control
- T/C (dose: 25.0 micrograms/kg/injection, vehicle: acid diluted with saline): 103 % of control
- T/C (dose: 50.0 micrograms/kg/injection, vehicle: acid diluted with saline): 123 % of control

Structure (SMILES): CSc1ncnc2nc[nH]c12
- T/C [6]: 109 % of control
- T/C [1]: 95 % of control and 118 % of control
- T/C [2]: 95 % of control and 113 % of control
- T/C [3]: 104 % of control

Structure (SMILES): OC(CBr)C(O)C(O)C(O)CBr (stereo not drawn)
- T/C [6]: 100 % of control
- T/C [1]: 100 % of control
- T/C [2]: 100 % of control and 110 % of control
- T/C [3]: 89 % of control
- T/C [4]: 115 % of control

Structure (SMILES): Clc1ncnc2nc[nH]c12
- T/C (dose: 7.5 mg/kg/injection, vehicle: saline): 90 % of control
- T/C (dose: 15.0 mg/kg/injection, vehicle: saline): 95 % of control and 100 % of control
- T/C (dose: 30.0 mg/kg/injection, vehicle: saline): 86 % of control and 95 % of control
- T/C (dose: 60.0 mg/kg/injection, vehicle: saline): 86 % of control
